# Laboratory results reported in patent US20120078529A1, “DETERMINING THE SEVERITY OF 5-FLUOROURACIL OVERDOSE” (WELLSTAT THERAPEUTICS CORPORATION, priority 2009, published 2012).
# “Also recorded” adds a separate entry of the source. Read-outs that look alike come from different tables or passages of the source.
# Assays:
# 5FU overdose [1] = experiment: Patients overdosed with 5FU treated with vistonuridine as an antidote; format: in vivo, human
# Procedure: Seventeen patients overdosed with 5FU have been treated with vistonuridine as an antidote. Patients received vistonuridine (10 g q6h for 20 doses) beginning 8 to 96 hours after overdose. Data from 13 patients with similar 5FU overdoses provide the time course and outcomes for patients receiving available supportive care without vistonuridine. A severity score, integrating dose and infusion rate, was calculated for all the patients, and this tool could be used by healthcare workers to determine the expected severity and outcome of a 5FU overdose.
# Wellstat Therapeutics Corporation was contacted by physicians of patients who had received 5FU overdoses, most due to infusion pump errors. Emergency Investigational New Drug approvals (INDs) were obtained from the U.S. Food and Drug Administration (FDA), and vistonuridine was promptly shipped or couriered to the clinics. Patients received vistonuridine beginning 8 to 96 hours after 5FU.
# lethal 5FU overdose = experiment: Vistonuridine antidote after lethal 5FU overdose in mice; format: in vivo
# Procedure: Uridine is a specific pharmacologic antidote for 5FU poisoning. It reduces 5FU toxicity when taken up prior to the onset of cell death. However uridine has poor oral bioavailability (about 7%). Vistonuridine (chemical name: 2′,3′,5′-tri-O-acetyluridine) is an oral prodrug of uridine. […] Vistonuridine is rapidly converted to circulating uridine by deacetylation (FIG. 2). It is an effective antidote against 5FU poisoning when administered up to 48 hours or more after a lethal 5FU overdose in mice, and up to 96 hours or more in humans. (See Example 1 below).
# [2] = cited from earlier work
# [3] = 5-fluorouracil toxicity severity score calculation; parameters: species or system human; conditions: base ten logarithms, dose in mg, administration rate in mg/hr
# Source text: This invention provides a method of determining a 5-fluorouracil toxicity severity score for a patient receiving 5-fluorouracil, comprising calculating the square root of the sum of: (a) the square of the logarithm of the dose of 5-fluorouracil administered to the patient; and (b) the square of the logarithm of the administration rate of the 5-fluorouracil to the patient.
# The severity score can be represented by the following equation:
# Severity Score=[(log Dose)^2+(log Rate)^2]^1/2
# Typically the logarithm is a base-ten logarithm (log10):
# ti Severity Score=[(log10 Dose)^2+(log10 Rate)^2]^1/2
# In accordance with this invention the dose and the dose rate can be expressed in any units, including all units that are conventional for expressing drug doses and dose rates. […] Whether they should receive vistonuridine should be evaluated on a case-by-case basis by the patient's physician. When units other than milligrams and mg/hr are utilized or a power relationship other than log10 is utilized in the calculation, the severity score will have a different numerical value and the skilled artisan can readily calculate the corresponding cut-offs distinguishing among lethal, seriously toxic but nonlethal, and nontoxic, doses. […]
# 5FU overdose [4] = conditions: cited from earlier work
# [5] = cited from earlier work; remark: listed apart in the source
smiles,measurement,setting,value
"CC(=O)OC[C@H]1O[C@@H](n2ccc(=O)[nH]c2=O)[C@H](OC(C)=O)[C@@H]1OC(C)=O [Vistonuridine, 2′,3′,5′-tri-O-acetyluridine]",Outcome of all 17 overdose patients treated with vistonuridine,"5FU overdose [1]; 17 patients, most with relatively modest toxicity",recovered fully
same,Time after 5FU overdose at which the antidote is still effective,5FU overdose [1]; humans,≥ 96 h
same,Observed Outcome,"5FU overdose [1]; individual 5FU overdose patient, vistonuridine 10 g q6 hr for 20 doses beginning 8 to 96 hours after the 5FU overdose",Recovered
same,Time after lethal 5FU overdose at which the antidote is still effective,lethal 5FU overdose,≥ 48 h
"O=c1ccn([C@@H]2O[C@H](CO)[C@@H](O)[C@H]2O)c(=O)[nH]1 [uridine, Uridine]",Oral bioavailability,[2],about 7%
"O=c1[nH]cc(F)c(=O)[nH]1 [5FU, 5-Fluorouracil]",Severity score that indicates a lethal dose,[3],≥ 4.5
same,Outcome of the 11 literature-reported 5FU overdose cases with predicted death,"5FU overdose [4]; 11 cases, available supportive care, no vistonuridine",die from the overdose
same,Observed Outcome,"5FU overdose [4]; individual 5FU overdose patient, best supportive care without vistonuridine",Death; also recorded: Recovered
same,Patients receiving 5FU who will develop a toxic reaction,"[5]; about 275,000 US cancer patients receive 5FU annually, NIH estimate",about 3%
same,Patients who die each year from 5FU overexposure,"[5]; human, in vivo",more than 1300 patients
